Laboratory results from patent publication US20260356803A1, “Nicotinamide derivatives” (Board of Regents, The University of Texas System, priority 2024, published 2026).
pIC50: −log10 of the molar value.

Columns and labels:
[1] = system: mouse and human MPNST cell lines; conditions: cited from earlier work
[2] = system: iHCT116 cells; experiment: iHCT116 cell viability with or without ectopic NMNAT1 expression; assay type: cell-based
From the text: Second, we screened for resistance to 9 in iHCT116 cells, a system that uses inducible mutagenesis and forward genetics to find compound-resistant mutations and thus can reveal both loss of function and gain of function alleles that suppress activity. The iHCT116 system is a barcoded cell line in which we temporally control mutagenesis by the addition of indole acetic acid (IAA) mediated degradation of the mismatch repair protein MLH1.^12 MLN4924 is a small molecule toxin that we use as a positive control to verify that IAA treatment leads to increased mutations. By degrading MLH1 and increasing the overall mutation rate, IAA treatment increases the frequency of UBA3 mutations, leading to a higher rate of MLN4924 resistance. […] Having previously established a relationship between either NMNAT1 levels or NAMPT activity and compound resistance, we analyzed the levels of both enzymes in multiple resistant clones that harbored unique barcode sequences. […] To test whether reduced NMNAT1 levels in these clones contributed to resistance, we ectopically expressed NMNAT1 in either the parental cells or a representative resistant clone with low NMNAT1 expression.
(§1) In 96-well assay plates (Corning #2903), 2,000 cells were plated per well in 100 μL of medium and allowed to adhere overnight. The next day, compounds or Nam suspended in DMSO were dispensed to the assayed wells using a D300e Digital Dispenser (Tecan). All wells were normalized to 0.5% DMSO. 72 hours after incubation at 37 °C in 5% CO2, cell viability was assayed using an ATP-based luminescent viability assay, CellTiter-Glo (Promega #G8462). CellTiter-Glo substrate was mixed 1:1 with phosphate-buffered saline (PBS) supplemented with 1% Triton X-100, and 40 μL of this mixture was added to the assay wells. After the plates were shaken on a microplate shaker for 10 minutes at room temperature, luminescence was recorded using a Synergy 2 Microplate Reader or Cytation 5 plate reader (BioTek). In Prism 9 software (GraphPad), ten-point dose response curves were plotted with baseline-correction to the vehicle control well, and IC50 values were calculated by curve fitting using asymmetric (five parameter), least squares fit.

[3] = Co-treatment of 9 with sublethal FK866; assay type: cell-based
Procedure: These observations, taken together, support the hypothesis that the activity of compound 9 depends on NAMPT and NMNAT1.
as §1

[4] = target: T1, recombinant human inosine monophosphate dehydrogenase 2 (IMPDH2) (Homo sapiens, UniProt P12268); experiment: IMPDH2 enzyme assay with reaction extracts; assay type: biochemical; conditions: role: inhibitor; extract of overnight reaction of 9 with NAMPT and NMNAT added at 40% v/v; 500 uM NAD, 250 uM IMP
T1 construct: NADH absorbance assay with extracts of NAMPT/NMNAT reactions
From the text: Given that vacor, 3-AP, and compound 21 are all metabolized to toxic, NAD-like derivatives through NAMPT and NMNAT, we hypothesized that their anti-cancer activity may also depend on SARM1. To test this, we compared the toxic effects of vacor, 3-AP, and 9 in either wild type cells or cells in which we used CRISPR to silence SARM1. […] These observations highlight that even though these different scaffolds are toxified through the same mechanism, the resulting metabolites may have different activities. We next co-titrated guanosine, which is known to rescue tiazofurin by bypassing IMPDH in guanylate synthesis, with each of the above small molecules. […] To test this hypothesis, we set up in vitro reactions with different combinations of 9, NAMPT and NMNAT. After incubation, metabolites were extracted, reconstituted in aqueous solution and then co-incubated with an established IMPDH2 enzyme assay.
IMPDH activity was measured by monitoring NADH production through the change in absorbance at […] as previously described [PMID: 13428767]. […] Absorbance was measured every 30 seconds for 30 minutes on a BioTek Cytation 5 plate reader (Agilent, USA) at 37 °C. IMPDH2 activity was determined from the slope of absorbance vs. time plots. […]

Question: For `O=C(Nc1cccnc1)c1cccs1` [Compound 1, N-(pyridin-3-yl)thiophene-2-carboxamide], which “toxicity to MPNST cell lines” value [1] is on record?
Answer: selectively toxic

Question: For `O=C(Nc1cccs1)c1cccnc1` [Compound 9, N-(Thiophen-2-yl)nicotinamide], which “decrease in IC50 on ectopic NMNAT1 expression” value ([2]; parental iHCT116) is on record?
Answer: 1.85 fold

Question: And the pIC50 ([2]; parental iHCT116, NMNAT1-expression)?
Answer: 7.57

Question: What about the pIC50 ([2]; parental iHCT116, mock-infected) of the same molecule?
Answer: 7.30

Question: And the pIC50 ([2]; representative resistant clone with low NMNAT1 expression)?
Answer: 6.24

Question: What about the “decrease in IC50 on ectopic NMNAT1 expression” value ([2]; resistant clone) of the same molecule?
Answer: 9.58 fold

Question: What about the pIC50 ([2]; resistant clone with ectopic NMNAT1 expression) of the same molecule?
Answer: 7.22

Question: What about the “increase in IC50 of 9 with FK866” value ([3]; addition of 278 pM FK866) of the same molecule?
Answer: 2.9 fold

Question: And the “increase in IC50 of 9 with FK866” value ([3]; addition of 833 pM FK866)?
Answer: 15.4 fold

Question: What about the “inhibition of IMPDH activity” value [4] of the same molecule?
Answer: substantial inhibition
